Legend:
CRP = conditions: subjects with prediabetes and elevated serum TNF-alpha; cited from earlier work
[1] = Safety in the CAD patient during the two week pemirolast treatment; format: in vivo, human; conditions: 30 mg b.i.d. for two weeks
Description: (§1) The first dose (3×10 mg) was administered in the morning of Day 1 at the clinic, the second dose in the evening of Day 1 at home, and then 3×10 mg b.i.d. at home during Days 2 to 14. The last dose was administered in the evening of Day 14 at home.
(§2) The CAD patient was a person with a body height of 188 cm and a body weight of 103 kg. They were on treatment with enalapril 20 mg QD (once daily) for hypertension since 2006. After a myocardial infarction in 2009, they were started on treatment with simvastatin 40 mg QD, acetylsalicylic acid 75 mg QD, and metoprolol 100 mg QD (all three drugs started in June 2009). Since January 2010, the patient was also treated with felodipin 5 mg QD. During the two week treatment with pemirolast, the patient continued to take these medications.

plasma tryptase = experiment: Plasma tryptase (ImmunoCAP Tryptase Fluoro-Immuno-Enzymatic Assay) in healthy volunteers before and after pemirolast treatment; format: in vivo, human
Description: (§3) Plasma CRP was determined with a high sensitivity CRP assay (based on Near Infrared Particle Immunoassay rate methodology) on a UniCel DxC 800 instrument from Beckman Coulter (analysis performed at the Department of Clinical Chemistry, Karolinska University Laboratory, Stockholm, Sweden). The degree of mast cell activity was determined by measuring plasma tryptase with the ImmunoCAP Tryptase Fluoro-Immuno-Enzymatic Assay on a ImmunoCAP 250 instrument from Phadia (analysis performed at Clinical Immunology and Transfusion Medicine, Karolinska University Laboratory, Stockholm, Sweden).

[2] = test system: plasma C-reactive protein (CRP); experiment: Plasma CRP (hsCRP assay) in a patient with coronary artery disease treated with pemirolast potassium for two weeks; format: in vivo, human; conditions: CAD patient, 30 mg b.i.d., 6.4 mg/L on Day 1 before the first dose
Description: The study was approved by the Swedish Medical Products Agency, and performed by Berzelius Clinical Research Centre AB in Linköping, Sweden (the clinic).
Plasma CRP was determined with the high sensitivity CRP (hsCRP) assay described in Example 1 above.
as §1, §2

[3] = human, in vivo, po
Description: During days 2-4, each subject received one dose in the morning and one dose in the evening with a time interval of 12 hours between the daily doses. […] Other than the occasional use of nasal decongestants or paracetamol, the subjects were instructed not to use other drugs, alcohol or nicotine during the study.

plasma CRP = experiment: Plasma CRP (high sensitivity CRP assay) in healthy volunteers treated perorally with pemirolast potassium for five days; format: in vivo, human
Description: as §3

[4] = apparently healthy subjects with normal or low LDL cholesterol and elevated CRP; 1.9 years; cited from earlier work
hsCRP = conditions: patients with chronic obstructive pulmonary disease; cited from earlier work

Q: Which “effect on CRP” value (CRP) does the source give for `CN1CCC(=C2c3ccccc3CC(=O)c3sccc32)CC1` [ketotifen] here?
A: not to reduce CRP

Q: Which results are given for `Cc1cccn2c(=O)c(-c3nnn[nH]3)cnc12` [pemirolast]?
A: adverse events [1]: did not report any adverse events; effect on tryptase levels (plasma tryptase; four subjects with SLGI, plasma CRP >0.9 mg/L): did not reduce; mean plasma tryptase level (plasma tryptase; four subjects with plasma CRP >0.9 mg/L, both before and after pemirolast treatment): 4.8 µg/L; CRP level ([2]; Day 8): 4.0 mg/L; CRP level ([2]; morning of Day 15): 1.8 mg/L; AUC and Cmax versus dose [3]: increased in a dose-proportional manner; effect on CRP levels (FIG. 1) (plasma CRP; four subjects with baseline CRP >0.9 mg/L, 10, 30 or 50 mg day 1-5): markedly reduced; mean CRP level at the end of the pemirolast treatment (plasma CRP; four subjects with baseline plasma CRP >0.9 mg/L, 10, 30 or 50 mg per os b.i.d. day 1-5, 1.8 mg/L before treatment, p<0.05): 1.1 mg/L; mean CRP level at the end of the pemirolast treatment (plasma CRP; remaining subjects with baseline CRP below 0.9 mg/L (n=13), 0.32 mg/L before treatment): 0.38 mg/L

Q: For `CC(C)c1nc(N(C)S(C)(=O)=O)nc(-c2ccc(F)cc2)c1/C=C/[C@@H](O)C[C@@H](O)CC(=O)O` [rosuvastatin], which “effect on cardiovascular morbidity/mortality” value [4] is on record?
A: significantly reduces

Q: For `Cn1c(=O)c2[nH]cnc2n(C)c1=O` [theophylline], which “effect on hsCRP” value (hsCRP) is on record?
A: not to reduce hsCRP
